These results are taken from US11884750B2, “Cationic cell penetrating peptides and the use thereof” (CELLTROY CO., LTD., priority 2021, dated 2024).

One test has as its system HaCAT cells. Description: Cell penetration efficiency in human epidermal (skin) cells, 4 μM, flow cytometry. The test is classed as cell-based. As to conditions: 4 μM FITC-conjugated CPP, one hour. In a few lines:
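HaCAT cells […] were grown 24 h in DMEM with 10% FBS at 37 °C, then treated 1 h with 4 μM FITC-conjugated peptide or FITC-TAT. Cells were trypsinised and washed in D-PBS. Intracellular fluorescence was read by flow cytometry.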

The test system of a further test is HepG2 cell line. Nature of the test: Cell penetration efficiency using liver cells. Conditions: 4 μM FITC-conjugated CPP, one hour. It is filed as cell-based. The procedure: (§1) Subsequently, to confirm whether the CPPs according to the present invention show excellent cell permeability into different types of cells/tissues, various tissue-derived cells were treated with biologically active molecule-conjugated CPPs to compare its delivery capacity with TAT. As in the previous examples, each cell was aliquoted in a plate at an appropriate density, and cultured in a 10% FBS-added medium under a condition of 37° C. and 5% CO2 for 24 hours. Subsequently, the cells were treated with 4 μM each of FITC-conjugated CPP or FITC-conjugated TAT and incubated for one hour. After the completion of the incubation, the cells were transferred to a sterile tube using 0.25% trypsin and centrifuged to remove the medium. Afterward, the cells were washed with 500 μL of D-PBS twice to completely remove the medium, and finally, resuspended in 400 μL of D-PBS and intracellular fluorescence was measured by flow cytometry (FACSCanto II).

Another test concerns SNU-46 cell line. Nature of the test: Cell penetration efficiency using laryngeal cells. It is filed as cell-based. As to conditions: SNU-46 laryngeal cells, 4 μM FITC-conjugated CPP, one hour. Put shortly:
(§2)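 Uptake is compared with TAT: each cell type receives 4 μM of FITC-labelled peptide for one hour, having first been cultured for 24 h in medium containing 10% FBS at 37 °C and 5% CO2. Fluorescence inside washed, trypsin-harvested cells is then quantified by flow cytometry.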

A further test has as its system HDF cell line. Description: Cell penetration efficiency in skin cells (HDF). The test is classed as cell-based. As to conditions: 4 μM FITC-conjugated CPP, one hour. Put shortly:
as §2

The test system of another test is HGB cell line. Description: Cell penetration efficiency in glioblastoma cells. The test is classed as cell-based, human. Conditions: 4 μM FITC-conjugated CPP, one hour. Put shortly:
as §2

The next test relates to HEK293T cell line. Description: Cell penetration efficiency using kidney cells. It is filed as cell-based. As to conditions: 4 μM FITC-conjugated CPP, one hour. Put shortly: as §2
The next test deals with macrophages. Nature of the test: Cell penetration efficiency using macrophages. It is filed as cell-based. As to conditions: macrophages differentiated from THP1 cells, 4 μM FITC-conjugated CPP, one hour. The procedure:
as §1, with “II). Macrophages were used by inducing differentiation from THP1 cells. Specifically, the THP-1 cells were aliquoted on a cover glass laid on a 24-well plate to have a density of 6×10^4 cells/well, and after the addition of 100 ng/mL of phorbol 12-myristate 13-acetate (PMA), the cells were incubated for 48 hours to induce the differentiation into macrophages. After 48 hours, the cells were washed with Dulbecco's phosphate buffered saline (DPBS) to perform an experiment.” for “II).”

For a further test, the system named is A-427 cell line. Description: Cell penetration efficiency using lung cells. The test is classed as cell-based. As to conditions: A-427 lung cells, 4 μM FITC-conjugated CPP, one hour. In a few lines:
as §2

Another test deals with HeLa cell line. Description: Cell penetration efficiency using cervical cancer cells. It is filed as cell-based. As to conditions: 4 μM FITC-conjugated CPP, one hour. Put shortly:
as §2

Another test has as its system HT1080 cell line. Description: Cell penetration efficiency using connective tissue (fibrosarcoma) cells. It is filed as cell-based. Conditions: 4 μM FITC-conjugated CPP, one hour. In a few lines:
as §2

Another test relates to SH-SY5Y cells. Description: Cell penetration efficiency in human neuroblastoma cells, 4 μM, flow cytometry. The test is classed as cell-based. Conditions: one hour; for cell permeability compared with TAT: 4 μM FITC-conjugated CPP, flow cytometry; for Score / Score/TAT: 4 μM FITC-conjugated peptide; for Score: intracellular fluorescence by flow cytometry; for Score/TAT: ratio to FITC-conjugated TAT. In a few lines: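 SH-SY5Y cells cultured 24 h in DMEM/10% FBS at 37 °C, 5% CO2, then exposed to 4 μM FITC-conjugated peptide (FITC-TAT as reference) for 1 h. After trypsinisation and D-PBS washes, intracellular fluorescence measured by flow cytometry.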
For orientation: A flow cytometer gives signals particle by particle.

The next test concerns monocytes. Nature of the test: Cell penetration efficiency using monocytes. It is filed as cell-based. Conditions: 4 μM FITC-conjugated CPP, one hour. The method, then:
as §1

“Also recorded” adds a separate entry of the source.

For the sequence RPRRKKQIKRLCKR [C16], the “cell permeability compared with TAT” value is listed as “increased cell permeability; also recorded: higher cell permeability” with HaCAT cells; “higher cell permeability” in the test on HepG2 cell line; “higher cell permeability” in the test on SNU-46 cell line; “higher cell permeability” with HDF cell line; “higher cell permeability” with HGB cell line; “higher cell permeability” in the test with HEK293T cell line. In addition, the “cell permeability compared with TAT” value with macrophages, in the test with A-427 cell line, in the test with HeLa cell line, with HT1080 cell line and in the test with SH-SY5Y cells was “higher cell permeability” in each case. The Score with SH-SY5Y cells amounted to 1680. Moreover, the Score/TAT in the test with SH-SY5Y cells is 3.237.
In the case of ARLRVILRRRHPRR [C95], the “cell permeability compared with TAT” value in the test on HaCAT cells, in the test on HepG2 cell line, in the test with SNU-46 cell line, in the test with HDF cell line, with HGB cell line and in the test with HEK293T cell line was “higher cell permeability” in each case. The “cell permeability compared with TAT” value in the test on macrophages, in the test on monocytes, in the test on A-427 cell line, with HT1080 cell line and in the test with SH-SY5Y cells was “higher cell permeability” throughout. In the test on HGB cell line, the “cell permeability, fold of TAT” value is on record as not below 2 fold. In the test on SH-SY5Y cells, this sequence gave a Score of 2417. Also, the Score/TAT in the test on SH-SY5Y cells came out at 4.657.
Consider KPRKKKKKRKNKKI [C12], for which the “cell permeability compared with TAT” value in the test with HaCAT cells is on record as “increased cell permeability”; in the test with HepG2 cell line, “higher cell permeability”; in the test with SNU-46 cell line, “higher cell permeability”; in the test on HDF cell line it was “higher cell permeability”; in the test with HGB cell line it was “higher cell permeability”; in the test on HEK293T cell line, “higher cell permeability”. For the same sequence, the “cell permeability compared with TAT” value in the test on macrophages, in the test on A-427 cell line, in the test with HeLa cell line, in the test with HT1080 cell line and in the test on SH-SY5Y cells was “higher cell permeability” each time. The sequence also showed a Score in the test with SH-SY5Y cells of 2062. In addition, in the test with SH-SY5Y cells, the Score/TAT was 3.973.
For IPLRRLMRRARRHR [C112], the “cell permeability compared with TAT” value with HaCAT cells, in the test on HepG2 cell line, in the test with SNU-46 cell line, with HDF cell line, with HGB cell line and in the test on macrophages was “higher cell permeability” each time. The “cell permeability compared with TAT” value with monocytes, with HeLa cell line and in the test on SH-SY5Y cells was “higher cell permeability” each time. The sequence further registered a Score with SH-SY5Y cells of 946. Also, the Score/TAT with SH-SY5Y cells is 1.823.
Regarding IRAKKKKRRRKKKP [C31], the “cell permeability compared with TAT” value in the test with HaCAT cells was “increased cell permeability; also recorded: higher cell permeability”; with HepG2 cell line, “higher cell permeability”; in the test with SNU-46 cell line it was “higher cell permeability”; in the test with HDF cell line it was “higher cell permeability”; in the test with HEK293T cell line, “higher cell permeability”; in the test on macrophages, “higher cell permeability”. In addition, the “cell permeability compared with TAT” value in the test on A-427 cell line, in the test on HeLa cell line, in the test on HT1080 cell line and in the test on SH-SY5Y cells was “higher cell permeability” each time. In the test on SH-SY5Y cells, this sequence had a Score of 998. The Score/TAT in the test on SH-SY5Y cells was 1.923.
With SRRRLRRFLRRIAP [C185], the “cell permeability compared with TAT” value in the test with HaCAT cells, in the test with HepG2 cell line, in the test on SNU-46 cell line, with HDF cell line, in the test with HGB cell line and in the test on HEK293T cell line was “higher cell permeability” in each case. Besides, the “cell permeability compared with TAT” value in the test on macrophages, in the test on monocytes, with HeLa cell line and in the test on SH-SY5Y cells was “higher cell permeability” each time. The Score in the test on SH-SY5Y cells is 1684. Besides, the Score/TAT in the test on SH-SY5Y cells amounted to 3.245.
Turning to TKRRKRRLRRRLTP [C52], the “cell permeability compared with TAT” value was “increased cell permeability; also recorded: higher cell permeability” in the test with HaCAT cells; “higher cell permeability” in the test with HepG2 cell line; “higher cell permeability” with SNU-46 cell line; “higher cell permeability” in the test with HDF cell line; “higher cell permeability” in the test on HEK293T cell line; “higher cell permeability” in the test with macrophages. The “cell permeability compared with TAT” value in the test on A-427 cell line, in the test on HeLa cell line, with HT1080 cell line and in the test on SH-SY5Y cells was “higher cell permeability” in each case. This sequence also showed a Score with SH-SY5Y cells of 1328. The Score/TAT with SH-SY5Y cells is recorded as 2.559.
Consider ARLRVILRRRNPKR [C93], for which the “cell permeability compared with TAT” value in the test on HaCAT cells, in the test on HepG2 cell line, with SNU-46 cell line, in the test with HDF cell line, with HGB cell line and in the test with HEK293T cell line was “higher cell permeability” throughout. In addition, the “cell permeability compared with TAT” value in the test on monocytes, in the test with A-427 cell line, in the test on HeLa cell line, in the test on HT1080 cell line and in the test with SH-SY5Y cells was “higher cell permeability” each time. The sequence further registered a Score with SH-SY5Y cells of 1798. Besides, the Score/TAT with SH-SY5Y cells stood at 3.464.
